Measurements reported in patent publication US20220119354A1, “DIAMINO-SUBSTITUTED PYRIDINES AND PYRIMIDINES AS HERBICIDES” (FMC Corporation, priority 2019, published 2022).

How the values were obtained:
Type in all cases: in vivo
[1] = system: sedge, umbrella (small-flower umbrella sedge, Cyperus difformis); assay: Test B flooded paddy test, umbrella sedge; settings: Flood, 250 g ai/ha, applied to paddy water, 2-leaf stage, visual evaluation after 13 to 15 d
Procedure: (§1) Plant species in the flooded paddy test selected from rice (Oryza sativa), sedge, umbrella (small-flower umbrella sedge, Cyperus difformis), ducksalad (Heteranthera limosa), and barnyardgrass (Echinochloa crus-galli) were grown to the 2-leaf stage for testing. At the time of treatment, test pots were flooded to 3 cm above the soil surface, treated by application of test compounds directly to the paddy water, and then maintained at that water depth for the duration of the test. Treated plants and controls were maintained in a greenhouse for 13 to 15 d, after which time all species were compared to controls and visually evaluated. Plant response ratings, summarized in Table B, are based on a scale of 0 to 100 where 0 is no effect and 100 is complete control. A dash (-) response means no test result.

[2] = system: ducksalad (Heteranthera limosa); assay: Test B flooded paddy test, ducksalad; settings: Flood, 250 g ai/ha, applied to paddy water, 2-leaf stage, visual evaluation after 13 to 15 d
Procedure: as §1

[3] = system: barnyardgrass (Echinochloa crus-galli); assay: Test A postemergence, barnyardgrass; settings: 0 to 100 scale
From the text: (§2) Seeds of plant species selected from barnyardgrass (Echinochloa crus-galli), kochia (Kochia scoparia), ragweed (common ragweed, Ambrosia elatior), ryegrass, Italian (Lolium multiflorum), foxtail, giant (Setaria faberii), foxtail, green (Setaria viridis), and pigweed (Amaranthus retroflexus) were planted into a blend of loam soil and sand and treated preemergence with a directed soil spray using test chemicals formulated in a non-phytotoxic solvent mixture which included a surfactant.
(§3) At the same time, plants selected from these weed species and also wheat (Triticum aestivum), corn (Zea mays), blackgrass (Alopecurus myosuroides), and galium (catchweed bedstraw, Galium aparine) were planted in pots containing the same blend of loam soil and sand and treated with postemergence applications of test chemicals formulated in the same manner. Plants ranged in height from 2 to 10 cm and were in the one- to two-leaf stage for the postemergence treatment. Treated plants and untreated controls were maintained in a greenhouse for approximately 10 d, after which time all treated plants were compared to untreated controls and visually evaluated for injury. Plant response ratings, summarized in Table A, are based on a 0 to 100 scale where 0 is no effect and 100 is complete control. A dash (-) response means no test result.

[4] = system: pigweed (Amaranthus retroflexus); assay: Test A preemergence, pigweed; settings: 0 to 100 scale
From the text: as §2, §3

[5] = system: barnyardgrass (Echinochloa crus-galli); assay: Test B flooded paddy test, barnyardgrass; settings: Flood, 250 g ai/ha, applied to paddy water, 2-leaf stage, visual evaluation after 13 to 15 d
Procedure: as §1

kochia (Kochia scoparia) [6] = assay: Test A preemergence, kochia; settings: 0 to 100 scale
From the text: as §2, §3

[7] = system: blackgrass (Alopecurus myosuroides); assay: Test A postemergence, blackgrass; settings: 0 to 100 scale
From the text: as §2, §3

[8] = system: foxtail, giant (Setaria faberii); assay: Test A postemergence, giant foxtail; settings: 0 to 100 scale
From the text: as §2, §3

[9] = system: pigweed (Amaranthus retroflexus); assay: Test A postemergence, pigweed; settings: 0 to 100 scale
From the text: as §2, §3

kochia (Kochia scoparia) [10] = assay: Test A postemergence, kochia; settings: 0 to 100 scale
From the text: as §2, §3

[11] = system: ryegrass, Italian (Lolium multiflorum); assay: Test A preemergence, Italian ryegrass; settings: 0 to 100 scale
From the text: as §2, §3

[12] = system: ragweed (common ragweed, Ambrosia elatior); assay: Test A postemergence, ragweed; settings: 0 to 100 scale
From the text: as §2, §3

corn (Zea mays) = assay: Test A postemergence, corn; settings: 0 to 100 scale
From the text: as §2, §3

[13] = system: foxtail, giant (Setaria faberii); assay: Test A preemergence, giant foxtail; settings: 0 to 100 scale
From the text: as §2, §3

[14] = system: ryegrass, Italian (Lolium multiflorum); assay: Test A postemergence, Italian ryegrass; settings: 0 to 100 scale
From the text: as §2, §3

[15] = system: wheat (Triticum aestivum); assay: Test A postemergence, wheat; settings: 0 to 100 scale
From the text: as §2, §3

[16] = system: galium (catchweed bedstraw, Galium aparine); assay: Test A postemergence, galium; settings: 0 to 100 scale
From the text: as §2, §3

rice (Oryza sativa) = assay: Test B flooded paddy test, rice; settings: Flood, 250 g ai/ha, applied to paddy water, 2-leaf stage, visual evaluation after 13 to 15 d
Procedure: as §1

[17] = system: barnyardgrass (Echinochloa crus-galli); assay: Test A preemergence, barnyardgrass; settings: 0 to 100 scale
From the text: as §2, §3

Compound	Plant response rating, Sedge, Umbrella (0 to 100 scale, 0 is no effect, 100 is complete control) [1]	Plant response rating, Ducksalad (0 to 100 scale, 0 is no effect, 100 is complete control) [2]	Plant response rating, Barnyardgrass ([3]; 125 g ai/ha)	Plant response rating, Barnyardgrass ([3]; 500 g ai/ha)	Plant response rating, Pigweed ([4]; 125 g ai/ha)	Plant response rating, Pigweed ([4]; 500 g ai/ha)	Plant response rating, Barnyardgrass (0 to 100 scale, 0 is no effect, 100 is complete control) [5]	Plant response rating, Kochia (kochia (Kochia scoparia) [6]; 125 g ai/ha)	Plant response rating, Kochia (kochia (Kochia scoparia) [6]; 500 g ai/ha)	Plant response rating, Blackgrass ([7]; 125 g ai/ha)	Plant response rating, Blackgrass ([7]; 500 g ai/ha)	Plant response rating, Foxtail, Giant ([8]; 125 g ai/ha)	Plant response rating, Foxtail, Giant ([8]; 500 g ai/ha)	Plant response rating, Pigweed ([9]; 125 g ai/ha)	Plant response rating, Pigweed ([9]; 500 g ai/ha)	Plant response rating, Kochia (kochia (Kochia scoparia) [10]; 125 g ai/ha)	Plant response rating, Kochia (kochia (Kochia scoparia) [10]; 500 g ai/ha)	Plant response rating, Ryegrass, Italian ([11]; 125 g ai/ha)	Plant response rating, Ryegrass, Italian ([11]; 500 g ai/ha)	Plant response rating, Ragweed ([12]; 125 g ai/ha)	other results
C[C@H](Nc1ncc(C(F)(F)F)c(N)n1)C1Cc2ccccc2C1 [Compound 12]	0	0	0	0	0	50	0	0	0	0	0	0	0	30	40	0	30	0	0	0	Plant response rating, Ragweed ([12]; 500 g ai/ha): 0; Plant response rating, Corn (corn (Zea mays); 125 g ai/ha): 0; Plant response rating, Corn (corn (Zea mays); 500 g ai/ha): 0; Plant response rating, Foxtail, Giant ([13]; 125 g ai/ha): 0; Plant response rating, Foxtail, Giant ([13]; 500 g ai/ha): 0; Plant response rating, Ryegrass, Italian ([14]; 125 g ai/ha): 0; Plant response rating, Ryegrass, Italian ([14]; 500 g ai/ha): 0; Plant response rating, Wheat ([15]; 125 g ai/ha): 0; Plant response rating, Wheat ([15]; 500 g ai/ha): 0; Plant response rating, Galium ([16]; 125 g ai/ha): 0; Plant response rating, Galium ([16]; 500 g ai/ha): 0; Plant response rating, Rice (0 to 100 scale, 0 is no effect, 100 is complete control) (rice (Oryza sativa)): 0; Plant response rating, Barnyardgrass ([17]; 125 g ai/ha): 0; Plant response rating, Barnyardgrass ([17]; 500 g ai/ha): 0
CC(Nc1ncc(C(F)(F)F)c(N)n1)c1cc2ccccc2s1 (racemic) [Compound 16]	95	15	30	60	90	100	50	70	100	10	30	20	90	90	100	70	80	0	10	0	Plant response rating, Ragweed ([12]; 500 g ai/ha): 80; Plant response rating, Corn (corn (Zea mays); 125 g ai/ha): 0; Plant response rating, Corn (corn (Zea mays); 500 g ai/ha): 20; Plant response rating, Foxtail, Giant ([13]; 125 g ai/ha): 50; Plant response rating, Foxtail, Giant ([13]; 500 g ai/ha): 100; Plant response rating, Ryegrass, Italian ([14]; 125 g ai/ha): 0; Plant response rating, Ryegrass, Italian ([14]; 500 g ai/ha): 40; Plant response rating, Wheat ([15]; 125 g ai/ha): 0; Plant response rating, Wheat ([15]; 500 g ai/ha): 0; Plant response rating, Galium ([16]; 125 g ai/ha): 60; Plant response rating, Galium ([16]; 500 g ai/ha): 80; Plant response rating, Rice (0 to 100 scale, 0 is no effect, 100 is complete control) (rice (Oryza sativa)): 0; Plant response rating, Barnyardgrass ([17]; 125 g ai/ha): 70; Plant response rating, Barnyardgrass ([17]; 500 g ai/ha): 100
